Read-outs that look alike come from different tables or passages of the source. Non-standard residues stand in square brackets, D forms with d. Residues, ends and D or L forms follow the SMILES beside them.
Assay: SPR, peptide binding to LUVs immobilized on L1 chip
Details: for Kd: SPR steady state analysis, HEPES pH 7.4, room temperature, mean ± SD of triplicates; for koff PC/PG / koff PC: SPR, 10 mM HEPES pH 7.4 100 mM NaCl, room temperature, 400 s dissociation phase; for koff PC/PG: two-population fit averaged; for koff PC: two-population fit averaged (Figueira et al.); for SPR KP, DMPC: lipid/aqueous partition coefficient from SPR steady state (Figueira et al. method), DMPC LUVs; for SPR KP, DMPC / SPR KP, DMPC/PG: HEPES pH 7.4, ± SD of triplicate fits; for SPR KP, DMPC/PG: lipid/aqueous partition coefficient from SPR steady state, 95% DMPC 5% DMPG LUVs
Experimental: The interactions between AMPs 1–5 and LUVs were first investigated by SPR as a benchmark for the MST measurements. The data was acquired using the same lipid compositions as used in the MST data acquisition. LUVs were immobilized on an L1 chip, and an increasing concentration of AMPs was injected over them. […] The dissociation rate, koff, was calculated from the dissociation step, using the methodology presented by Figueira et al.[21], summarized in Table 2.
DMPC and DMPC:5% DMPG vesicles were prepared by solubilising a known weight of lipid in chloroform with a small amount of methanol to assist in the dissolution of the PG lipid head groups. The chloroform stock was dried in vacuo to produce a lipid film, which was further dried for additional 3 h. The lipid film was solubilised in 10 mM TRIS buffer (pH 7.4) containing 100 mM NaCl to yield a 20 mM milky lipid stock.
To produce the working vesicle stock, 1 mL of vesicle stock was extruded 20 times through a 0.1 µm filter using an Avanti Lipids mini-extruder. Vesicle size was confirmed using a Malvern Zetasizer Nano ZS (Malvern Panalytical Ltd, Malvern, United Kingdom).
The SPR measurements were performed using a T200 Biacore instrument (GE Healthcare, Oslo, Norway) at room temperature. An L1 chip was covered with extruded DMPC liposomes (1 mM in 10 mM HEPES buffer pH 7.4 with 100 mM NaCl) using a flowrate of 2 µL/min for 2400 s. Chip coverage was tested by injection of 0.1 mg/mL of bovine serum albumin for 1 min at 30 µL/min, with a change of < 400 RU indicating sufficient coverage.
The liposome surface was stabilized after each injection by three subsequent injections of 10 mM NaOH at 30 µL/min for 30 s each. Between experiments, the chip surface was cleaned by 20 mM CHAPS, 40 mM octyl-β-D-glucopyranoside and 30% ethanol in turn, with each solution injected for 1 min at 30 µL/min. The control flow cell was treated identically, with the exception that only the HEPES buffer solution was injected. The results were processed using in-house MATLAB scripts (MATLAB R2020a; scripts are available at https://github.com/MarJakubec).
KD was obtained from a steady state analysis using the intensities at the 190 s dissociation time, using Eq. (1):[21]1 Req=cRmax/KD+c+Roff where Req is the response at the steady state equilibrium, c is the peptide concentration, Rmax is the maximum response and Roff the response offset.
KP was obtained from same steady state affinity values using the method presented by Figuera et al., Eq. (2):[21]2 RUS/RUL=γLKPMS/MLSW/1+σγLKPSW where RUS and RUL are the relative responses of solute (peptides) and lipids respectively, γL is the molar volume of the lipids, MS and ML are the molecular mass of solute and lipid, respectively, and [S]W is the concentration of solute in water. KP and σ are obtained from fitting (with σ being lipid to solute ratio).
For koff evaluation we have used the formalism of Figuera et al.[21] for linearization of the dissociation process, where we have identified the contribution from two different populations in the dissociation response. Koff values were then obtained by Eq. (3) and averaged by Eq. (4):3 SL(t)=αe^-koff,α^t+βe^-koff,β^t+SL,r 4 koff=αkoff,α+βkoff,β/α+β where SL is the linearized ratio of solute and lipid, α and β are individual populations, and SL,r is the retained solute fraction.

[1] = 95% DMPC 5% DMPG LUVs on L1 chip, read-out: SPR KD, DMPC/PG
[2] = 95% DMPC 5% DMPG LUVs on L1 chip

Compound | Kd [1] | Kd (DMPC LUVs on L1 chip) | koff PC/PG [2] | koff PC (DMPC LUVs on L1 chip) | SPR KP, DMPC | SPR KP, DMPC/PG
N=C(N)NCCC[C@@H]1NC(=O)[C@H](CCCNC(=N)N)NC(=O)[C@H](Cc2c[nH]c3ccccc23)NC(=O)[C@H](Cc2c[nH]c3ccccc23)NC(=O)[C@H](Cc2c[nH]c3ccccc23)NC(=O)[C@H](CCCNC(=N)N)NC1=O [compound 1] (cyclo(WWWRRR)) | 70 ± 1 µM | 142 ± 35 µM | 0.19 ± 0.01 s⁻¹ | 0.22 ± 0.02 s⁻¹ | 6.65 ± 0.80 × 10^3 | 12.71 ± 0.16 × 10^3
N=C(N)NCCC[C@@H]1NC(=O)[C@H](Cc2c[nH]c3ccccc23)NC(=O)[C@H](CCCNC(=N)N)NC(=O)[C@H](Cc2c[nH]c3ccccc23)NC(=O)[C@H](CCCNC(=N)N)NC(=O)[C@H](Cc2c[nH]c3ccccc23)NC1=O [compound 2] (cyclo(WRWRWR)) | 105 ± 7 µM | 318 ± 62 µM | 0.48 ± 0.05 s⁻¹ | 0.87 ± 0.19 s⁻¹ | 1.30 ± 0.09 × 10^3 | 3.16 ± 0.15 × 10^3
NCCCC[C@@H]1NC(=O)[C@H](CCCCN)NC(=O)[C@H](Cc2c[nH]c3ccccc23)NC(=O)[C@H](Cc2c[nH]c3ccccc23)NC(=O)[C@H](Cc2c[nH]c3ccccc23)NC(=O)[C@H](CCCCN)NC1=O [compound 3] (cyclo(WWWKKK)) | 112 ± 15 µM | 302 ± 32 µM | 0.32 ± 0.05 s⁻¹ | 0.48 ± 0.07 s⁻¹ | 2.53 ± 0.08 × 10^3 | 5.16 ± 0.34 × 10^3
NCCCC[C@@H]1NC(=O)[C@H](Cc2c[nH]c3ccccc23)NC(=O)[C@H](CCCCN)NC(=O)[C@H](Cc2c[nH]c3ccccc23)NC(=O)[C@H](CCCCN)NC(=O)[C@H](Cc2c[nH]c3ccccc23)NC1=O [compound 4] (cyclo(WKWKWK)) | 474 ± 45 µM | 712 ± 27 µM | 1.32 ± 0.05 s⁻¹ | 0.90 ± 0.24 s⁻¹ | 0.53 ± 0.01 × 10^3 | 0.63 ± 0.03 × 10^3
CC(C)C[C@@H]1NC(=O)[C@@H](CCCNC(=N)N)NC(=O)[C@H](CCCCN)NC(=O)[C@H](CC(N)=O)NC(=O)[C@@H](Cc2c[nH]c3ccccc23)NC(=O)[C@H](Cc2c[nH]c3ccccc23)NC1=O [compound 5] (cyclo(LW[dW]NK[dR])) | 1030 ± 58 µM | 2550 ± 493 µM | 1.75 ± 0.16 s⁻¹ | 1.76 ± 0.12 s⁻¹ | 0.28 ± 0.01 × 10^3 | 0.40 ± 0.02 × 10^3
